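Grown in 96-well plates, cells were treated for 48 hours with each compound at five concentrations. Insufficient inhibition: endpoint recorded as highest concentration tested. At the GI50, growth is halved.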 The source made the active and inactive calls. Cut-off read from the data, not from the text of the source: active = GI50 up to about 1.1 µM and inactive = higher.
What was measured:
Test in all cases: DTP human tumour cell line panel, 48 h
HCT-15 = tested on: HCT-15
LOX IMVI = tested on: LOX IMVI
Malme-3M = tested on: Malme-3M
SR = tested on: SR
MDA-MB-435 = tested on: MDA-MB-435
DU-145 = tested on: DU-145
NCI/ADR-RES = tested on: NCI/ADR-RES
PC-3 = tested on: PC-3
SK-OV-3 = tested on: SK-OV-3
UO-31 = tested on: UO-31
UACC-62 = tested on: UACC-62
NCI-H522 = tested on: NCI-H522
IGROV-1 = tested on: IGROV-1
SW-620 = tested on: SW-620
A549 = tested on: A549
CCRF-CEM = tested on: CCRF-CEM
SNB-19 = tested on: SNB-19
NCI-H23 = tested on: NCI-H23
ACHN = tested on: ACHN
SK-MEL-2 = tested on: SK-MEL-2
CAKI-1 = tested on: CAKI-1
SF-295 = tested on: SF-295
MOLT-4 = tested on: MOLT-4
T47D = tested on: T47D
TK-10 = tested on: TK-10
NCI-H460 = tested on: NCI-H460
HT-29 = tested on: HT-29
MDA-MB-231 = tested on: MDA-MB-231
OVCAR-4 = tested on: OVCAR-4
A498 = tested on: A498
SF-539 = tested on: SF-539
HL-60 = tested on: HL-60
OVCAR-5 = tested on: OVCAR-5
OVCAR-8 = tested on: OVCAR-8
SN12C = tested on: SN12C
U-251 = tested on: U-251
COLO 205 = tested on: COLO 205
SK-MEL-5 = tested on: SK-MEL-5
EKVX = tested on: EKVX
786-0 = tested on: 786-0
NCI-H226 = tested on: NCI-H226
RPMI-8226 = tested on: RPMI-8226
SF-268 = tested on: SF-268
OVCAR-3 = tested on: OVCAR-3
Hs-578T = tested on: Hs-578T
HOP-92 = tested on: HOP-92
M14 = tested on: M14
RXF 393 = tested on: RXF 393
BT-549 = tested on: BT-549
HCT-116 = tested on: HCT-116
HOP-62 = tested on: HOP-62
KM12 = tested on: KM12
K562 = tested on: K562
SK-MEL-28 = tested on: SK-MEL-28
UACC-257 = tested on: UACC-257
MDA-N = tested on: MDA-N
SNB-75 = tested on: SNB-75
HCC 2998 = tested on: HCC 2998

For O=C1CCSSCCC(=O)Nc2ccccc2N1, the GI50 (HCT-15) was > 100 µM, the GI50 (LOX IMVI) was > 100 µM (inactive) and the GI50 (Malme-3M) was > 100 µM (inactive). For the same compound, the GI50 (SR) was > 100 µM (inactive), the GI50 (MDA-MB-435) was > 100 µM (inactive) and the GI50 (DU-145) was > 100 µM (inactive). The GI50 (NCI/ADR-RES) was > 100 µM (inactive), the GI50 (PC-3) was > 100 µM (inactive) and the GI50 (SK-OV-3) was > 100 µM (inactive). The GI50 (UO-31) was > 100 µM (inactive), the GI50 (UACC-62) was > 100 µM (inactive) and the GI50 (NCI-H522) was > 100 µM (inactive). The GI50 (IGROV-1) was > 100 µM (inactive), the GI50 (SW-620) was > 100 µM (inactive) and the GI50 (A549) was > 100 µM (inactive). The GI50 (CCRF-CEM) was > 100 µM (inactive), the GI50 (SNB-19) was > 100 µM (inactive) and the GI50 (NCI-H23) was > 100 µM (inactive). The GI50 (ACHN) was > 100 µM (inactive), the GI50 (SK-MEL-2) was > 100 µM (inactive) and the GI50 (CAKI-1) was > 100 µM (inactive). The GI50 (SF-295) was > 100 µM (inactive), the GI50 (MOLT-4) was 34 µM (inactive) and the GI50 (T47D) was > 100 µM (inactive). For the same compound, the GI50 (TK-10) was > 100 µM (inactive), the GI50 (NCI-H460) was > 100 µM (inactive) and the GI50 (HT-29) was > 100 µM (inactive). The GI50 (MDA-MB-231) was > 100 µM (inactive), the GI50 (OVCAR-4) was > 100 µM (inactive) and the GI50 (A498) was > 100 µM (inactive). For the same compound, the GI50 (SF-539) was > 100 µM (inactive), the GI50 (HL-60) was > 100 µM (inactive) and the GI50 (OVCAR-5) was > 100 µM (inactive). The GI50 (OVCAR-8) was > 100 µM (inactive), the GI50 (SN12C) was > 100 µM (inactive) and the GI50 (U-251) was > 100 µM (inactive). For the same compound, the GI50 (COLO 205) was > 100 µM (inactive), the GI50 (SK-MEL-5) was > 100 µM (inactive) and the GI50 (EKVX) was > 100 µM (inactive). The GI50 (786-0) was > 100 µM (inactive), the GI50 (NCI-H226) was > 100 µM (inactive) and the GI50 (RPMI-8226) was > 100 µM (inactive). The GI50 (SF-268) was > 100 µM (inactive), the GI50 (OVCAR-3) was > 100 µM (inactive) and the GI50 (Hs-578T) was > 100 µM (inactive). The GI50 (HOP-92) was > 100 µM (inactive), the GI50 (M14) was > 100 µM (inactive) and the GI50 (RXF 393) was > 100 µM (inactive). The GI50 (BT-549) was > 100 µM (inactive), the GI50 (HCT-116) was > 100 µM (inactive) and the GI50 (HOP-62) was > 100 µM (inactive). The GI50 (KM12) was > 100 µM (inactive), the GI50 (K562) was 53.5 µM (inactive) and the GI50 (SK-MEL-28) was > 100 µM (inactive). For the same compound, the GI50 (UACC-257) was > 100 µM (inactive).

CO[C@H](c1ccccc1)[C@H](O)[C@](O)(c1ccccc1)P(=O)(OC)OC was tested, and the GI50 (HCT-15) was > 100 µM, the GI50 (LOX IMVI) was > 100 µM (inactive) and the GI50 (Malme-3M) was > 100 µM (inactive). For the same compound, the GI50 (SR) was > 100 µM (inactive), the GI50 (MDA-MB-435) was > 100 µM (inactive) and the GI50 (DU-145) was > 100 µM (inactive). The GI50 (NCI/ADR-RES) was > 100 µM (inactive), the GI50 (PC-3) was > 100 µM (inactive) and the GI50 (SK-OV-3) was > 100 µM (inactive). For the same compound, the GI50 (UO-31) was > 100 µM (inactive), the GI50 (UACC-62) was > 100 µM (inactive) and the GI50 (NCI-H522) was > 100 µM (inactive). For the same compound, the GI50 (MDA-N) was > 100 µM (inactive), the GI50 (IGROV-1) was > 100 µM (inactive) and the GI50 (SW-620) was > 100 µM (inactive). For the same compound, the GI50 (A549) was > 100 µM (inactive), the GI50 (SNB-75) was > 100 µM (inactive) and the GI50 (CCRF-CEM) was > 100 µM (inactive). The GI50 (SNB-19) was > 100 µM (inactive), the GI50 (NCI-H23) was > 100 µM (inactive) and the GI50 (ACHN) was > 100 µM (inactive). For the same compound, the GI50 (SK-MEL-2) was > 100 µM (inactive), the GI50 (CAKI-1) was > 100 µM (inactive) and the GI50 (SF-295) was > 100 µM (inactive). For the same compound, the GI50 (MOLT-4) was > 100 µM (inactive), the GI50 (T47D) was > 100 µM (inactive) and the GI50 (TK-10) was > 100 µM (inactive). The GI50 (NCI-H460) was > 100 µM (inactive), the GI50 (HT-29) was > 100 µM (inactive) and the GI50 (MDA-MB-231) was > 100 µM (inactive). The GI50 (OVCAR-4) was > 100 µM (inactive), the GI50 (A498) was > 100 µM (inactive) and the GI50 (SF-539) was > 100 µM (inactive). For the same compound, the GI50 (HL-60) was > 100 µM (inactive), the GI50 (OVCAR-5) was > 100 µM (inactive) and the GI50 (OVCAR-8) was > 100 µM (inactive). The GI50 (SN12C) was > 100 µM (inactive), the GI50 (U-251) was > 100 µM (inactive) and the GI50 (COLO 205) was > 100 µM (inactive). The GI50 (SK-MEL-5) was > 100 µM (inactive), the GI50 (EKVX) was > 100 µM (inactive) and the GI50 (786-0) was > 100 µM (inactive). For the same compound, the GI50 (NCI-H226) was > 100 µM (inactive), the GI50 (RPMI-8226) was > 100 µM (inactive) and the GI50 (SF-268) was > 100 µM (inactive). For the same compound, the GI50 (OVCAR-3) was > 100 µM (inactive), the GI50 (HOP-92) was > 100 µM (inactive) and the GI50 (M14) was > 100 µM (inactive). For the same compound, the GI50 (RXF 393) was > 100 µM (inactive), the GI50 (HCC 2998) was > 100 µM (inactive) and the GI50 (BT-549) was > 100 µM (inactive). The GI50 (HCT-116) was > 100 µM (inactive), the GI50 (KM12) was > 100 µM (inactive) and the GI50 (K562) was > 100 µM (inactive). For the same compound, the GI50 (SK-MEL-28) was > 100 µM (inactive) and the GI50 (UACC-257) was > 100 µM (inactive).

— ChEMBL document CHEMBL1201862, “PubChem BioAssay data set” (2004)
